Data published in patent US9428504B2, “7-hydroxy-spiropipiperidine indolinyl antagonists of P2Y1 receptor” (BRISTOL-MYERS SQUIBB COMPANY, priority 2012, dated 2016).

What was measured:
[1] = target: cloned human P2Y1 receptors (Homo sapiens (Human), UniProt P47900); assay: Binding Assay B: Scintillation Proximity Assay (SPA) for P2Y1 binding; details: SPA, [33P] 2MeS-ADP displacement; read-out: P2Y1 Ki (nM) using binding assay B
Summary of the method: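 Scintillation proximity readout of 0.3 nM [^33P] tracer displacement from receptor membranes (~15 fmol receptor, 1.7 μg protein). Binding ran 1 h at room temperature to completion; plates were then centrifuged and aqueous phase aspirated before counting.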

[2] = system: human platelet rich plasma (PRP); assay: ADP induced platelet aggregation assay; details: Homo sapiens, Platelet, read-out: PA IC50 (μM) @ 10 μM ADP, platelet aggregation induced by 10 μM ADP, human PRP
Description: The ability of P2Y1 antagonists covered in the present invention to inhibit platelet aggregation induced by 10 μM ADP was tested using human platelet rich plasma (PRP) as described in Platelet Protocols: Research and Clinical Laboratory Procedures (White, M. M. et al., Academic Press (1999)). Human blood was collected in 30 μM (final concentration in blood) argatroban (GSK) as the anticoagulant at a ratio of 1 ml per 9 ml of blood. The PRP was isolated by centrifugation at 170 g for 12 minutes. The platelet poor plasma (PPP) was used as the blank for optical aggregometry. Compounds of the present invention in DMSO solution was preincubated with 250 μl PRP at 37° C. for 1 minute with stirring speed of 1000 rpm. Aggregation was initiated by addition of 2.5 μl of 1 mM ADP (Chrono-log, Havertown, Pa.) for a final ADP concentration of 10 μM. Platelet aggregation was monitored using Optical Aggregometer (Chrono-log, Havertown, Pa.) and the area under the curve (AUC) at 5 minute was measured. IC50 was calculated using vehicle control as 0% inhibition.

Sequence of cloned human P2Y1 receptors (P47900 whole entry): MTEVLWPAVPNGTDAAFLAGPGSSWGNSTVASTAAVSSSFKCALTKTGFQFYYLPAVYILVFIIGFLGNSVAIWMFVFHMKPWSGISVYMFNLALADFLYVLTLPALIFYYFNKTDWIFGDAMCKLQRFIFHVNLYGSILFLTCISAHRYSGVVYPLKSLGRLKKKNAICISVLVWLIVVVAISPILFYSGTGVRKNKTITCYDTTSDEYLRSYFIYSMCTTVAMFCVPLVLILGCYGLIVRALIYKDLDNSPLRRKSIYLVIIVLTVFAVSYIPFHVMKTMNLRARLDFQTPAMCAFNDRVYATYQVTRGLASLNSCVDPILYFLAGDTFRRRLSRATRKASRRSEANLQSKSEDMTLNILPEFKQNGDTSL

Structure (SMILES) | Ki [1] [nM] | IC50 [2] [µM]
CC(C)(C)CN1CCC2(CC1)CN(c1ccccc1NC(=O)Nc1ccc(OC(F)(F)F)cc1)c1c(O)ccc(-c3nc4cccc(Cl)c4s3)c12 [Example 123, 1-(2-(4-(7-Chlorobenzo[d]thiazol-2-yl)-7-hydroxy-1′-neopentylspiro[indoline-3,4′-piperidin]-1-yl)phenyl)-3-(4-(trifluoromethoxy)phenyl)urea] | 32.5 | 0.6
CC(C)(C)CN1CCC2(CC1)CN(c1ccccc1NC(=O)Nc1nc3ccc(Cl)cc3s1)c1c(O)ccc(-c3nc4cccc(Cl)c4s3)c12 [Example 124, 1-(6-Chlorobenzo[d]thiazol-2-yl)-3-(2-(4-(7-chlorobenzo[d]thiazol-2-yl)-7-hydroxy-1′-neopentylspiro[indoline-3,4′-piperidin]-1-yl)phenyl)urea] | 51.5 | 1
CC(C)(C)CN1CCC2(CC1)CN(c1ccccc1NC(=O)Nc1nc3ccc(Cl)nc3s1)c1c(O)ccc(-c3nc4ccc(Cl)cc4s3)c12 [Example 125, 1-(2-(4-(6-Chlorobenzo[d]thiazol-2-yl)-7-hydroxy-1′-neopentylspiro[indoline-3,4′-piperidin]-1-yl)phenyl)-3-(5-chlorothiazolo[5,4-b]pyridin-2-yl)urea] | 21.6 | 0.9
CC(C)(C)CN1CCC2(CC1)CN(c1ccccc1NC(=O)Nc1nc3ccc(Cl)nc3s1)c1c(O)ccc(-c3nc4cc(F)ccc4s3)c12 [Example 126, 1-(5-Chlorothiazolo[5,4-b]pyridin-2-yl)-3-(2-(4-(5-fluorobenzo[d]thiazol-2-yl)-7-hydroxy-1′-neopentylspiro[indoline-3,4′-piperidin]-1-yl)phenyl)urea] | 13.1 | 0.4
COc1ccc2nc(-c3ccc(O)c4c3C3(CCN(CC(C)(C)C)CC3)CN4c3ccccc3NC(=O)Nc3csc(Cl)n3)sc2c1 [Example 128, 1-(2-Chlorothiazol-4-yl)-3-(2-(7-hydroxy-4-(6-methoxybenzo[d]thiazol-2-yl)-1′-neopentylspiro[indoline-3,4′-piperidin]-1-yl)phenyl)urea] | 8 | 0.2
COc1ccc2nc(-c3ccc(O)c4c3C3(CCN(CC(C)(C)C)CC3)CN4c3ccccc3NC(=O)Nc3csc(C(F)(F)F)n3)sc2c1 [Example 129, 1-(2-(7-Hydroxy-4-(6-methoxybenzo[d]thiazol-2-yl)-1′-neopentylspiro[indoline-3,4′-piperidin]-1-yl)phenyl)-3-(2-(trifluoromethyl)thiazol-4-yl)urea] | 8.7 | 0.7
COc1ccc2nc(-c3ccc(O)c4c3C3(CCN(CC(C)(C)C)CC3)CN4c3ccccc3NC(=O)Nc3ccc(OC(F)(F)F)cc3)sc2c1 [Example 130, 1-(2-(7-Hydroxy-4-(6-methoxybenzo[d]thiazol-2-yl)-1′-neopentylspiro[indoline-3,4′-piperidin]-1-yl)phenyl)-3-(4-(trifluoromethoxy)phenyl)urea] | 16.8 | 0.6
COc1ccc2nc(-c3ccc(O)c4c3C3(CCN(CC(C)(C)C)CC3)CN4c3ccccc3NC(=O)Nc3nc4ccc(Cl)cc4s3)sc2c1 [Example 131, 1-(6-Chlorobenzo[d]thiazol-2-yl)-3-(2-(7-hydroxy-4-(6-methoxybenzo[d]thiazol-2-yl)-1′-neopentylspiro[indoline-3,4′-piperidin]-1-yl)phenyl)urea] | 22.5 | 1
CC(C)(C)CN1CCC2(CC1)CN(c1ccccc1NC(=O)Nc1csc(C(F)(F)F)n1)c1c(O)ccc(-c3nc4ccc(F)cc4s3)c12 [Example 132, 1-(2-(4-(6-Fluorobenzo[d]thiazol-2-yl)-7-hydroxy-1′-neopentylspiro[indoline-3,4′-piperidin]-1-yl)phenyl)-3-(2-(trifluoromethyl)thiazol-4-yl)urea] | 12.4 | 0.7
CC(C)(C)CN1CCC2(CC1)CN(c1ccccc1NC(=O)Nc1ccc(OC(F)(F)F)cc1)c1c(O)ccc(-c3nc4cc(F)ccc4s3)c12 [Example 135, 1-(2-(4-(5-Fluorobenzo[d]thiazol-2-yl)-7-hydroxy-1′-neopentylspiro[indoline-3,4′-piperidin]-1-yl)phenyl)-3-(4-(trifluoromethoxy)phenyl)urea] | 21.7 | 0.6
CC(C)(C)CN1CCC2(CC1)CN(c1ccccc1NC(=O)Nc1ccc(OC(F)(F)F)cc1)c1c(O)cc(F)c(-c3nc4cc(Cl)ccc4s3)c12 [Example 137, 1-(2-(4-(5-Chlorobenzo[d]thiazol-2-yl)-5-fluoro-7-hydroxy-1′-neopentylspiro[indoline-3,4′-piperidin]-1-yl)phenyl)-3-(4-(trifluoromethoxy)phenyl)urea] | 44.7 | 0.4
CC(C)(C)CN1CCC2(CC1)CN(c1ccccc1NC(=O)Nc1nc3ccc(F)cc3s1)c1c(O)ccc(-c3nc4cc(F)ccc4s3)c12 [Example 138, 1-(6-Cluorobenzo[d]thiazol-2-yl)-3-(2-(4-(5-fluorobenzo[d]thiazol-2-yl)-7-hydroxy-1′-neopentylspiro[indoline-3,4′-piperidin]-1-yl)phenyl)urea] | 24.6 | 0.2
CC(C)(C)CN1CCC2(CC1)CN(c1ccccc1NC(=O)Nc1nc3ccc(F)cc3s1)c1c(O)cc(F)c(-c3nc4cc(Cl)ccc4s3)c12 [Example 140, 1-(2-(4-(5-Chlorobenzo[d]thiazol-2-yl)-5-fluoro-7-hydroxy-1′-neopentylspiro[indoline-3,4′-piperidin]-1-yl)phenyl)-3-(6-fluorobenzo[d]thiazol-2-yl)urea] | 52.4 | 0.6
CC(C)(C)CN1CCC2(CC1)CN(c1ccccc1NC(=O)Nc1nc3ccc(Cl)cc3s1)c1c(O)cc(F)c(-c3nc4cc(Cl)ccc4s3)c12 [Example 141, 1-(6-Chlorobenzo[d]thiazol-2-yl)-3-(2-(4-(5-chlorobenzo[d]thiazol-2-yl)-5-fluoro-7-hydroxy-1′-neopentylspiro[indoline-3,4′-piperidin]-1-yl)phenyl)urea] | 33.9 | 0.9
CC(C)(C)CN1CCC2(CC1)CN(c1ccccc1NC(=O)Nc1nc3ccc(Cl)nc3s1)c1c(O)ccc(-c3nc4ccc(F)cc4s3)c12 [Example 144, 1-(5-Chlorothiazolo[5,4-b]pyridin-2-yl)-3-(2-(4-(6-fluorobenzo[d]thiazol-2-yl)-7-hydroxy-1′-neopentylspiro[indoline-3,4′-piperidin]-1-yl)phenyl)urea] | 13 | 0.7
CC(C)(C)CN1CCC2(CC1)CN(c1ccccc1NC(=O)Nc1nc3ccc(Cl)cc3s1)c1c(O)ccc(-c3nc4ccc(F)cc4s3)c12 [Example 145, 1-(6-Chlorobenzo[d]thiazol-2-yl)-3-(2-(4-(6-fluorobenzo[d]thiazol-2-yl)-7-hydroxy-1′-neopentylspiro[indoline-3,4′-piperidin]-1-yl)phenyl)urea] | 18.4 | 0.6
COc1ccc2nc(NC(=O)Nc3ccccc3N3CC4(CCN(CC(C)(C)C)CC4)c4c(-c5nc6cc(F)ccc6s5)ccc(O)c43)sc2c1 [Example 146, 1-(2-(4-(5-Fluorobenzo[d]thiazol-2-yl)-7-hydroxy-1′-neopentylspiro[indoline-3,4′-piperidin]-1-yl)phenyl)-3-(6-methoxybenzo[d]thiazol-2-yl)urea] | 11.2 | 0.6
CC(C)(C)CN1CCC2(CC1)CN(c1ccccc1NC(=O)Nc1ccc(OC(F)(F)F)cc1)c1c(O)cc(F)c(-c3nc4ccc(F)cc4s3)c12 [Example 147, 1-(2-(5-Fluoro-4-(6-fluorobenzo[d]thiazol-2-yl)-7-hydroxy-1′-neopentylspiro[indoline-3,4′-piperidin]-1-yl)phenyl)-3-(4-(trifluoromethoxy)phenyl)urea] | 14.8 | 0.5
CC(C)(C)CN1CCC2(CC1)CN(c1ccccc1NC(=O)Nc1nc3ccc(Cl)cc3s1)c1c(O)ccc(-c3nc4cc(Cl)ccc4s3)c12 [Example 149, 1-(6-Chlorobenzo[d]thiazol-2-yl)-3-(2-(4-(5-chlorobenzo[d]thiazol-2-yl)-7-hydroxy-1′-neopentylspiro[indoline-3,4′-piperidin]-1-yl)phenyl)urea] | 26.8 | 0.9
COc1ccc2nc(NC(=O)Nc3ccccc3N3CC4(CCN(CC(C)(C)C)CC4)c4c(-c5nc6cc(Cl)ccc6s5)ccc(O)c43)sc2c1 [Example 150, 1-(2-(4-(5-Chlorobenzo[d]thiazol-2-yl)-7-hydroxy-1′-neopentylspiro[indoline-3,4′-piperidin]-1-yl)phenyl)-3-(6-methoxybenzo[d]thiazol-2-yl)urea] | 33.4 | 0.9
CC(C)(C)CN1CCC2(CC1)CN(c1ccccc1NC(=O)Nc1nc3ccc(Cl)nc3s1)c1c(O)cc(F)c(-c3ccc(F)cc3)c12 [Example 152] | 10.2 | 0.2
CC(C)(C)CN1CCC2(CC1)CN(c1ccccc1NC(=O)Nc1ccc(OC(F)(F)F)cc1)c1c(O)c(F)cc(-c3ccc(F)cc3)c12 [Example 153, 1-(2-(6-Fluoro-4-(4-fluorophenyl)-7-hydroxy-1′-neopentylspiro[indoline-3,4′-piperidin]-1-yl)phenyl)-3-(4-(trifluoromethoxy)phenyl)urea] | 11.5 | 0.4
CC(C)(C)CN1CCC2(CC1)CN(c1ccccc1NC(=O)Nc1ccc(OC(F)(F)F)cc1)c1c(O)c(F)cc(-c3ccc(C(F)(F)F)cc3)c12 [Example 154, 1-(2-(6-Fluoro-7-hydroxy-1′-neopentyl-4-(4-(trifluoromethyl)phenyl)spiro[indoline-3,4′-piperidine]-1-yl)phenyl)-3-(4-(trifluoromethoxy)phenyl)urea] | 38.8 | 0.4
CC(C)(C)CN1CCC2(CC1)CN(c1ccccc1NC(=O)Nc1ccc(OC(F)(F)F)cc1)c1c(O)cc(F)c(-c3ccc(F)cc3)c12 [Example 155, 1-(2-(5-Fluoro-4-(4-fluorophenyl)-7-hydroxy-1′-neopentylspiro[indoline-3,4′-piperidin]-1-yl)phenyl)-3-(4-(trifluoromethoxy)phenyl)urea] | 22.5 | 0.1
